Laboratory results: patent US11072588B2, “Barbituric acid derivatives comprising cationic and lipophilic groups” (UNIVERSITETET I TROMSØ—NORGES ARKTISKE UNIVERSITET, priority 2017, dated 2021)
≈ marks a conversion by molar mass, not a printed value.

What was measured:
A. baumanii K44-35 = test: MIC, multi-resistant clinical isolate; assay type: cell-based, Acinetobacter baumannii; conditions: for MIC: Acinetobacter baumannii, K4435, read-out: Antimicrobial activity (MIC); for selectivity index (EC50/MIC): RBC EC50 / MIC
A. baumanii K47-42 = test: MIC, multi-resistant clinical isolate; assay type: cell-based, Acinetobacter baumannii; conditions: for MIC: Acinetobacter baumannii, K4742, read-out: Antimicrobial activity (MIC); for selectivity index (EC50/MIC): RBC EC50 / MIC
human RBCs = test: Determination of haemolytic activity; assay type: cell-based
Procedure, shortened: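 Heparinized fresh blood was washed in PBS, and RBCs were used at 1% v/v final with test compounds at 500–4 μM (DMSO ≤1%) for 1 h at 37 °C. Haemoglobin release was read at 545 nm and expressed relative to 1% Triton X-100 after PBS background correction. EC50 values are means of three independent experiments.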

In the case of NCCCCN1C(=O)N(CCCCN)C(=O)C(Cc2cc(Br)cc(Br)c2)(Cc2cc(Br)cc(Br)c2)C1=O [7(ii)], the MIC (A. baumanii K44-35) is reported as 16 µg/mL (≈ 20.9 µM), the “selectivity index (EC50/MIC)” value (A. baumanii K44-35) is reported as “(5)” and the MIC (A. baumanii K47-42) is reported as 16 µg/mL (≈ 20.9 µM). For the same compound, the “selectivity index (EC50/MIC)” value (A. baumanii K47-42) was “(5)”.
CC(C)(C)c1cc(CC2(Cc3cc(C(C)(C)C)cc(C(C)(C)C)c3)C(=O)N(CCCCN)C(=O)N(CCCCN)C2=O)cc(C(C)(C)C)c1 [7(iii), 1,3-bis(4-aminobutyl)-5,5-bis(3,5-di-tert-butylbenzyl)-pyrimidin-2,4,6(1H,3H,5H)-trione] was tested, and the MIC (A. baumanii K44-35) was 4 µg/mL (≈ 5.93 µM), the “selectivity index (EC50/MIC)” value (A. baumanii K44-35) was “(<1)” and the MIC (A. baumanii K47-42) was 4 µg/mL (≈ 5.93 µM). For the same compound, the “selectivity index (EC50/MIC)” value (A. baumanii K47-42) was “(<1)”.
With NCCCCN1C(=O)N(CCCCN)C(=O)C(Cc2ccc3ccccc3c2)(Cc2ccc3ccccc3c2)C1=O [7(iv), 1,3-bis(4-aminobutyl)-5,5-bis(naphtalen-2-yl-methyl)-pyrimidin-2,4,6(1H,3H,5H)-trione] the MIC (A. baumanii K44-35) was 32 µg/mL (≈ 58.1 µM), the “selectivity index (EC50/MIC)” value (A. baumanii K44-35) was “(8)” and the MIC (A. baumanii K47-42) was 32 µg/mL (≈ 58.1 µM). For the same compound, the “selectivity index (EC50/MIC)” value (A. baumanii K47-42) was “(8)”.
For NCCCCN1C(=O)N(CCCCN)C(=O)C(Cc2ccc(F)c3ccccc23)(Cc2ccc(F)c3ccccc23)C1=O [7(v), 1,3-bis(4-aminobutyl)-5,5-bis((4-fluoronaphtalen-1-yl)methyl)pyrimidin-2,4,6(1H,3H,5H)-trione], the MIC (A. baumanii K44-35) was 32 µg/mL (≈ 54.5 µM), the “selectivity index (EC50/MIC)” value (A. baumanii K44-35) was “(5)” and the MIC (A. baumanii K47-42) was 32 µg/mL (≈ 54.5 µM). The “selectivity index (EC50/MIC)” value (A. baumanii K47-42) was “(5)”.
For NCCCCN1C(=O)N(CCCCN)C(=O)C(Cc2cc(C(F)(F)F)cc(C(F)(F)F)c2)(Cc2cc(C(F)(F)F)cc(C(F)(F)F)c2)C1=O [7(vi)], the MIC (A. baumanii K44-35) was 32 µg/mL (≈ 44.3 µM), the “selectivity index (EC50/MIC)” value (A. baumanii K44-35) was “(6)” and the MIC (A. baumanii K47-42) was 32 µg/mL (≈ 44.3 µM). For the same compound, the “selectivity index (EC50/MIC)” value (A. baumanii K47-42) was “(6)”.
N=C(N)NCCCCN1C(=O)N(CCCCNC(=N)N)C(=O)C(Cc2cc(Br)cc(Br)c2)(Cc2cc(Br)cc(Br)c2)C1=O [8(ii), 1,1′-(4,4′-(5,5-bis(3,5-dibromobenzyl)-2,4,6-trioxodihydropyrimidine-1,3(2H,4H)-diyl)bis(butane-4,1-diyl))diguanidine] was tested, and the MIC (A. baumanii K44-35) was 4 µg/mL (≈ 4.7 µM), the “selectivity index (EC50/MIC)” value (A. baumanii K44-35) was “(14)” and the MIC (A. baumanii K47-42) was 4 µg/mL (≈ 4.7 µM). The “selectivity index (EC50/MIC)” value (A. baumanii K47-42) was “(14)”.
With CC(C)(C)c1cc(CC2(Cc3cc(C(C)(C)C)cc(C(C)(C)C)c3)C(=O)N(CCCCNC(=N)N)C(=O)N(CCCCNC(=N)N)C2=O)cc(C(C)(C)C)c1 [8(iii), 1,1′-(4,4′-(5,5-bis(3,5-di-tert-butylbenzyl)-2,4,6-trioxodihydropyrimidine-1,3(2H,4H)-diyl)bis(butane-4,1-diyl))-diguanidine] the MIC (A. baumanii K44-35) was 4 µg/mL (≈ 5.27 µM), the “selectivity index (EC50/MIC)” value (A. baumanii K44-35) was “(<1)” and the MIC (A. baumanii K47-42) was 4 µg/mL (≈ 5.27 µM). The “selectivity index (EC50/MIC)” value (A. baumanii K47-42) was “(<1)”.
N=C(N)NCCCCN1C(=O)N(CCCCNC(=N)N)C(=O)C(Cc2ccc3ccccc3c2)(Cc2ccc3ccccc3c2)C1=O [8(iv), 1,1′-(4,4′-(5,5-bis(naphthalen-2-ylmethyl)-2,4,6-trioxodihydropyrimidine-1,3(2H,4H)-diyl)bis(butane-4,1-diyl))-diguanidine] was tested, and the MIC (A. baumanii K44-35) was 32 µg/mL (≈ 50.4 µM), the “selectivity index (EC50/MIC)” value (A. baumanii K44-35) was “(4)” and the MIC (A. baumanii K47-42) was 32 µg/mL (≈ 50.4 µM). The “selectivity index (EC50/MIC)” value (A. baumanii K47-42) was “(4)”.
With N=C(N)NCCCCN1C(=O)N(CCCCNC(=N)N)C(=O)C(Cc2ccc(F)c3ccccc23)(Cc2ccc(F)c3ccccc23)C1=O [8(v), 1,1′-(4,4′-(5,5-bis((4-fluoronaphthalen-1-yl)methyl)-2,4,6-trioxodihydropyrimidine-1,3(2H,4H)-diyl)bis(butane-4,1-diyl))diguanidine] the MIC (A. baumanii K44-35) was 8 µg/mL (≈ 11.9 µM), the “selectivity index (EC50/MIC)” value (A. baumanii K44-35) was “(11)” and the MIC (A. baumanii K47-42) was 8 µg/mL (≈ 11.9 µM). The “selectivity index (EC50/MIC)” value (A. baumanii K47-42) was “(11)”.
With CC(C)(C)c1ccc(CC2(Cc3ccc(C(C)(C)C)cc3)C(=O)N(CCCCN)C(=O)N(CCCCN)C2=O)cc1 [Compound 7(i), 1,3-bis(4-aminobutyl)-5,5-bis(4-tertbutylbenzyl) pyrimidin-2,4,6(1H,3H,5H)-trione] the MIC (A. baumanii K44-35) was 32 µg/mL (≈ 56.9 µM), the “selectivity index (EC50/MIC)” value (A. baumanii K44-35) was “(4)” and the MIC (A. baumanii K47-42) was 16 µg/mL (≈ 28.4 µM). The “selectivity index (EC50/MIC)” value (A. baumanii K47-42) was “(9)”.
CC(C)(C)c1ccc(CC2(Cc3ccc(C(C)(C)C)cc3)C(=O)N(CCCCNC(=N)N)C(=O)N(CCCCNC(=N)N)C2=O)cc1 [Compound 8(i), 1,1′-(4,4′-(5,5-bis(4-tert-butylbenzyl)-2,4,6-trioxodihydropyrimidine-1,3(2H,4H)-diyl)bis(butane-4,1-diyl))diguanidine] was tested, and the “RBC toxicity compared to the amine 7(i)” value (human RBCs) was “twofold increased RBC toxicity”, the MIC (A. baumanii K44-35) was 8 µg/mL (≈ 12.4 µM) and the “selectivity index (EC50/MIC)” value (A. baumanii K44-35) was “(10)”. The MIC (A. baumanii K47-42) was 8 µg/mL (≈ 12.4 µM) and the “selectivity index (EC50/MIC)” value (A. baumanii K47-42) was “(10)”.
